What all share (assay): relative viability (nuclei count vs DMSO), 5 days (fraction); higher = more cells survive
Compound in assay [1]: C1COCCN1C2=NC(=NC3=C2OC4=C3C=CC=N4)C5=CC(=CC=C5)NC(=O)C6=CN=C(C=C6)N + Cc1nc(NC(=O)N2CCC[C@H]2C(N)=O)sc1-c1ccnc(C(C)(C)C(F)(F)F)c1 [Alpelisib] (partner 2 µM)
In short, it runs like this: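 Each reported value is a median over duplicate plates. It expresses relative viability: treated-well nuclei count divided by vehicle-well nuclei count. Lung cancer cell lines in 1536-well plates were dosed by pin tool a day after seeding, alone with one drug or with a fixed anchor-drug dose plus five library-drug doses (not always all listed) in √10 steps, and nuclei were counted after 5 days.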

Compound in assay [2]: C1COCCN1C2=NC(=NC3=C2OC4=C3C=CC=N4)C5=CC(=CC=C5)NC(=O)C6=CN=C(C=C6)N
In short, it runs like this:
(§1)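 Lung cancer cell lines in 1536-well plates were kept overnight at 37 °C, then pinned with five library-drug doses (not always all listed) spaced by √10 on vehicle-anchored plates. After 5 days without medium change, cells were fixed, permeabilised and Hoechst-stained in one step, imaged at 4×, and nuclei were counted with MetaXpress. Viability is treated-well nuclei divided by vehicle-well nuclei, taken as the median over plates. Plates passed only with control CV below 25% and at least one doubling.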

Compound in assay [3]: Nc1ccccc1NC(=O)c1ccc(CNC(=O)OCc2cccnc2)cc1 [Entinostat]
In short, it runs like this: as §1

Compound in assay [4]: CN1CCC(CNc2ccc3ncc(-c4cccc(OC(F)(F)F)c4)n3n2)CC1 [SGI-1776]
The gist of the method: as §1

One cell line from the supplement of paper PMC10307832 can be followed below.

UMC-11: the relative viability in assay [1] (first compound 0.02 µM) was 1.06; in assay [1] (first compound 0.06325 µM) it was 1.04; in assay [1] (first compound 0.2 µM), 1.03; in assay [1] (first compound 0.6325 µM) it was 1.08; in assay [1] (first compound 2 µM), 0.593; in assay [2] (0.02 µM), 0.983. In addition, the relative viability in assay [2] (0.06325 µM) was 1.05; in assay [2] (0.2 µM), 0.945; in assay [2] (0.6325 µM), 1.13; in assay [2] (2 µM), 0.818; in assay [3] (0.02 µM), 1.14; in assay [3] (0.06325 µM) it was 1.11. Moreover, the relative viability came out at 0.918 in assay [3] (0.2 µM); 0.287 in assay [3] (0.6325 µM); 0.203 in assay [3] (2 µM); 1 in assay [4] (0.08 µM); 1.04 in assay [4] (0.8 µM); 0.923 in assay [4] (2.53 µM). Also, the relative viability in assay [4] (8 µM) was determined as 0.779.
